The test system of this test is HEK293T cells carrying the ATF4 luciferase reporter. Description: ATF4-Luc assay (in vitro model of VWMD). The settings on record: Homo sapiens, HEK-293T, 1 μg/mL tunicamycin, 7 hours, One Glo luminescence. It is filed as cell-based. The procedure: In order to test exemplary compounds of the invention in a cellular context, a stable VWMD cell line was first constructed. The ATF4 reporter was prepared by fusing the human full-length ATF4 5′-UTR (NCBI Accession No. BC022088.2) in front of the firefly luciferase (FLuc) coding sequence lacking the initiator methionine as described in Sidrauski et al (eLife 2013). The construct was used to produce recombinant retroviruses using standard methods and the resulting viral supernatant was used to transduce HEK293T cells, which were then subsequently selected with puromycin to generate a stable cell line.
HEK293T cells carrying the ATF4 luciferase reporter were plated on polylysine coated 384-well plates (Greiner Bio-one) at 30,000 cells per well. Cells were treated the next day with 1 μg/mL tunicamycin and 200 nM of a compound of Formula (I) for 7 hours. Luminescence was measured using One Glo (Promega) as specified by the manufacturer. Cells were maintained in DMEM with L-glutamine supplemented with 10% heat-inactivated FBS (Gibco) and Antibiotic-Antimycotic solution (Gibco).
Table 2 below summarizes the EC50 data obtained using the ATF4-Luc assay for exemplary compounds of the invention.
Consider `O=C(COc1ccc(Cl)c(F)c1)NC12CC(c3nnc(Oc4ccc(Cl)cc4)o3)(C1)C2` [Compound 128, 2-(4-chloro-3-fluorophenoxy)-N-{3-[5-(4-chlorophenoxy)-1,3,4-oxadiazol-2-yl]bicyclo[1.1.1]pentan-1-yl}acetamide], for which the EC50 (in general, the midpoint of the concentration-response curve) was less than 50 nM.

`N#Cc1cccc(Oc2nnc(C34CC(NC(=O)COc5ccc(Cl)c(F)c5)(C3)C4)o2)c1` [Compound 129, 2-(4-chloro-3-fluorophenoxy)-N-{3-[5-(3-cyanophenoxy)-1,3,4-oxadiazol-2-yl]bicyclo[1.1.1]pentan-1-yl}acetamide]: the EC50 is 50 to 250 nM.

For the compound `Cc1ccc(Oc2nnc(C34CC(NC(=O)COc5ccc(Cl)c(F)c5)(C3)C4)o2)cc1C` [Compound 130, 2-(4-chloro-3-fluorophenoxy)-N-{3-[5-(3,4-dimethylphenoxy)-1,3,4-oxadiazol-2-yl]bicyclo[1.1.1]pentan-1-yl}acetamide], the EC50 is 50 to 250 nM.

Take `O=C(COc1ccc(Cl)c(F)c1)NC12CC(c3nnc(Oc4ccc(C(F)(F)F)cc4)o3)(C1)C2` [Compound 131, 2-(4-chloro-3-fluorophenoxy)-N-(3-{5-[4-(trifluoromethyl)phenoxy]-1,3,4-oxadiazol-2-yl}bicyclo[1.1.1]pentan-1-yl)acetamide]: the EC50 is less than 50 nM.

On to `O=C(COc1ccc(Cl)c(F)c1)NC12CC(c3nnc(COc4ccc(Cl)cc4)[nH]3)(C1)C2` [Compound 132, 2-(4-chloro-3-fluorophenoxy)-N-(3-{5-[(4-chlorophenoxy)methyl]-4H-1,2,4-triazol-3-yl}bicyclo[1.1.1]pentan-1-yl)acetamide], for which the EC50 was less than 50 nM.

With `O=C(COc1ccc2c(c1)OC(F)(F)O2)NC12CC(c3nnc(COc4ccc(Cl)c(F)c4)o3)(C1)C2` [Compound 133, N-(3-{5-[(4-chloro-3-fluorophenoxy)methyl]-1,3,4-oxadiazol-2-yl}bicyclo-[1.1.1]pentan-1-yl)-2-[(2,2-difluoro-2H-1,3-benzodioxol-5-yl)oxy]acetamide], the EC50 is less than 50 nM.

Turning to `Cc1ccccc1Oc1nnc(C23CC(NC(=O)COc4ccc(Cl)c(F)c4)(C2)C3)o1` [Compound 134, 2-(4-chloro-3-fluorophenoxy)-N-{3-[5-(2-methylphenoxy)-1,3,4-oxadiazol-2-yl]bicyclo[1.1.1]pentan-1-yl}acetamide], the EC50 fell in the range of 250 to 1000 nM.

Take `Cc1cccc(Oc2nnc(C34CC(NC(=O)COc5ccc(Cl)c(F)c5)(C3)C4)o2)c1` [Compound 135, 2-(4-chloro-3-fluorophenoxy)-N-{3-[5-(3-methylphenoxy)-1,3,4-oxadiazol-2-yl]bicyclo[1.1.1]pentan-1-yl}acetamide]: the EC50 lay in the range of 50 to 250 nM.

On to `COc1cccc(Oc2nnc(C34CC(NC(=O)COc5ccc(Cl)c(F)c5)(C3)C4)o2)c1` [Compound 136, 2-(4-chloro-3-fluorophenoxy)-N-{3-[5-(3-methoxyphenoxy)-1,3,4-oxadiazol-2-yl]bicyclo[1.1.1]pentan-1-yl}acetamide], for which the EC50 is 50 to 250 nM.

Regarding `O=C(COc1ccc(Cl)c(F)c1)NC12CC(c3nnc(Oc4ccccc4F)o3)(C1)C2` [Compound 137, 2-(4-chloro-3-fluorophenoxy)-N-{3-[5-(2-fluorophenoxy)-1,3,4-oxadiazol-2-yl]bicyclo[1.1.1]pentan-1-yl}acetamide], the 50% effective concentration (EC50) lay within 250 to 1000 nM.

Consider `O=C(COc1ccc(Cl)c(F)c1)NC12CC(c3nnc(Oc4cccc(F)c4)o3)(C1)C2` [Compound 138, 2-(4-chloro-3-fluorophenoxy)-N-{3-[5-(3-fluorophenoxy)-1,3,4-oxadiazol-2-yl]bicyclo[1.1.1]pentan-1-yl}acetamide], for which the EC50 was 50 to 250 nM.

As for `O=C(COc1ccc(Cl)c(F)c1)NC12CC(c3nnc(Oc4cccc(C(F)(F)F)c4)o3)(C1)C2` [Compound 139, 2-(4-chloro-3-fluorophenoxy)-N-(3-{5-[3-(trifluoromethyl)phenoxy]-1,3,4-oxadiazol-2-yl}bicyclo[1.1.1]pentan-1-yl)acetamide], the EC50 is less than 50 nM.

In the case of `O=C(COc1ccc(Cl)c(F)c1)NC12CC(c3nnc(COc4cncc(F)c4)o3)(C1)C2` [Compound 140, 2-(4-chloro-3-fluorophenoxy)-N-[3-(5-{[(5-fluoropyridin-3-yl)oxy]methyl}-1,3,4-oxadiazol-2-yl)bicyclo[1.1.1]pentan-1-yl]acetamide], the EC50 lay within 50 to 250 nM.

As for `O=C(COc1ccc(Cl)c(F)c1)NC12CC(c3nnc(COc4ccc(C(F)(F)F)nc4)o3)(C1)C2` [Compound 141, 2-(4-chloro-3-fluorophenoxy)-N-{3-[5-({[6-(trifluoromethyl)pyridin-3-yl]oxy}methyl)-1,3,4-oxadiazol-2-yl]bicyclo[1.1.1]pentan-1-yl}acetamide], the EC50 lay within 50 to 250 nM.

As for `COc1ccc(OCc2nnc(C34CC(NC(=O)COc5ccc(Cl)c(F)c5)(C3)C4)o2)cn1` [Compound 142, 2-(4-chloro-3-fluorophenoxy)-N-[3-(5-{[(6-methoxypyridin-3-yl)oxy]methyl}-1,3,4-oxadiazol-2-yl)bicyclo[1.1.1]pentan-1-yl]acetamide], the EC50 is less than 50 nM.

Regarding `Cc1cncc(OCc2nnc(C34CC(NC(=O)COc5ccc(Cl)c(F)c5)(C3)C4)o2)c1` [Compound 143, 2-(4-chloro-3-fluorophenoxy)-N-[3-(5-{[(5-methylpyridin-3-yl)oxy]methyl}-1,3,4-oxadiazol-2-yl)bicyclo[1.1.1]pentan-1-yl]acetamide], the EC50 is 250 to 1000 nM.

Turning to `N#Cc1cncc(OCc2nnc(C34CC(NC(=O)COc5ccc(Cl)c(F)c5)(C3)C4)o2)c1` [Compound 144, 2-(4-chloro-3-fluorophenoxy)-N-[3-(5-{[(5-cyanopyridin-3-yl)oxy]methyl}-1,3,4-oxadiazol-2-yl)bicyclo[1.1.1]pentan-1-yl]acetamide], the EC50 was more than 2000 nM.

Turning to `Cc1ncc(OCc2nnc(C34CC(NC(=O)COc5ccc(Cl)c(F)c5)(C3)C4)o2)cc1Cl` [Compound 145, 2-(4-chloro-3-fluorophenoxy)-N-[3-(5-{[(5-chloro-6-methylpyridin-3-yl)oxy]methyl}-1,3,4-oxadiazol-2-yl)bicyclo[1.1.1]pentan-1-yl]acetamide], the EC50 was in the range of 50 to 250 nM.

Turning to `Cc1ccc(OCc2nnc(C34CC(NC(=O)COc5ccc(Cl)c(F)c5)(C3)C4)o2)cn1` [Compound 146, 2-(4-chloro-3-fluorophenoxy)-N-[3-(5-{[(6-methylpyridin-3-yl)oxy]methyl}-1,3,4-oxadiazol-2-yl)bicyclo[1.1.1]pentan-1-yl]acetamide], the EC50 lay in the range of 250 to 1000 nM.

Take `CC(C)Oc1ccc(OCc2nnc(C34CC(NC(=O)COc5ccc(Cl)c(F)c5)(C3)C4)o2)cn1` [Compound 147, 2-(4-chloro-3-fluorophenoxy)-N-(3-{5-[({6-[(propan-2-yl)oxy]pyridin-3-yl}oxy)methyl]-1,3,4-oxadiazol-2-yl}bicyclo[1.1.1]pentan-1-yl)acetamide]: the EC50 is 1000 to 2000 nM.

`O=C(COc1ccc(Cl)c(F)c1)NC12CC(c3nnc(COc4cncc(Cl)c4)o3)(C1)C2` [Compound 148, 2-(4-chloro-3-fluorophenoxy)-N-[3-(5-{[(5-chloropyridin-3-yl)oxy]methyl}-1,3,4-oxadiazol-2-yl)bicyclo[1.1.1]pentan-1-yl]acetamide]: the concentration for a half-maximal effect (EC50) fell in the range of 50 to 250 nM.

As to `O=C(COc1ccc(Cl)c(F)c1)NC12CC(c3nnc(COc4cnc5cc[nH]c5c4)o3)(C1)C2` [Compound 149, 2-(4-chloro-3-fluorophenoxy)-N-[3-(5-{[(1H-pyrrolo[3,2-b]pyridin-6-yl)oxy]methyl}-1,3,4-oxadiazol-2-yl)bicyclo[1.1.1]pentan-1-yl]acetamide], the EC50 is 1000 to 2000 nM.

For `O=C(COc1ccc(Cl)c(F)c1)NC12CC(c3nnc(COc4ccc(C5CC5)nc4)o3)(C1)C2` [Compound 150, 2-(4-chloro-3-fluorophenoxy)-N-[3-(5-{[(6-cyclopropylpyridin-3-yl)oxy]methyl}-1,3,4-oxadiazol-2-yl)bicyclo[1.1.1]pentan-1-yl]acetamide], the EC50 is 1000 to 2000 nM.

For the compound `COc1ccc(OCc2nnc(C34CC(NC(=O)COc5ccc(Cl)c(F)c5)(C3)C4)o2)c(C)n1` [Compound 151, 2-(4-chloro-3-fluorophenoxy)-N-[3-(5-{[(6-methoxy-2-methylpyridin-3-yl)oxy]methyl}-1,3,4-oxadiazol-2-yl)bicyclo[1.1.1]pentan-1-yl]acetamide], the concentration for a half-maximal effect (EC50) is 1000 to 2000 nM.

As to `O=C(COc1ccc(Cl)c(F)c1)NC12CC(c3nnc(COc4cnc5ccoc5c4)o3)(C1)C2` [Compound 152, 2-(4-chloro-3-fluorophenoxy)-N-[3-(5-{[(furo[3,2-b]pyridin-6-yl)oxy]methyl}-1,3,4-oxadiazol-2-yl)bicyclo[1.1.1]pentan-1-yl]acetamide], the EC50 lay in the range of 1000 to 2000 nM.

For the compound `CCc1nc(C)ccc1OCc1nnc(C23CC(NC(=O)COc4ccc(Cl)c(F)c4)(C2)C3)o1` [Compound 153, 2-(4-chloro-3-fluorophenoxy)-N-[3-(5-{[(2-ethyl-6-methylpyridin-3-yl)oxy]methyl}-1,3,4-oxadiazol-2-yl)bicyclo[1.1.1]pentan-1-yl]acetamide], the EC50 was more than 2000 nM.

With `CC(C)c1ccc(OCc2nnc(C34CC(NC(=O)COc5ccc(Cl)c(F)c5)(C3)C4)o2)cn1` [Compound 154, 2-(4-chloro-3-fluorophenoxy)-N-{3-[5-({[6-(propan-2-yl)pyridin-3-yl]oxy}methyl)-1,3,4-oxadiazol-2-yl]bicyclo[1.1.1]pentan-1-yl}acetamide], the EC50 was more than 2000 nM.

The values above are taken from patent US10864196B2, “Modulators of the integrated stress pathway” (Calico Life Sciences LLC, priority 2016, dated 2020).
